Ends that are not written are not given here.
Columns and labels:
[1] = molecular target: human neutrophil elastase (human) (UniProt P08246)
[2] = Acid stability; assay type: physicochemical; conditions: in 0.2 M HCl, 37 °C, 0-120 min, RP-UHPLC peak area as % of initial, n = 3
Protocol: 0.1 M of purified roseltide rT1 was dissolved in 0.2 M HCl or phosphate buffered saline (PBS) (control) and incubated at 37 °C. Samples were collected at various time points (0, 15, 30, 45, 60 and 120 min).

[3] = molecular target: pepsin (Sus scrofa, UniProt P00791); conditions: 0.1 M peptide, 0.2 M HCl, pepsin 50:1 (w/v), 37 °C, 0-120 min, RP-UHPLC peak area, n = 3
Protocol: (§1) 0.1 M of purified roseltide rT1 was dissolved in 100 mM Tris buffer (pH 8) and incubated with trypsin (Catalog number: T1426, Roche Applied Science, US) in a 50:1 (w/v) ratio at 37 °C. 0.1 M of purified roseltide rT1 was dissolved in 0.2 M HCl and incubated with pepsin (Catalog number: 03117901001, Roche Applied Science, US) in a 50:1 (w/v) ratio at 37 °C. […] Samples were collected at various time points (0, 15, 30, 45, 60 and 120 min).
(§2) All collected samples from various stability assays were analyzed by RP-UHPLC with a linear gradient of mobile phase A (0.05% TFA/H2O) and mobile phase B (0.05% TFA/ACN) on C18 column (3.6 μm particle size; 2.1 mm internal diameter; 10 cm length) (Phenomenex, US). The resulting peaks were collected and the identified by MALDI-TOF MS. The results were expressed as percentage of initial concentration using the peak area of the UHPLC profile.

[4] = molecular target: trypsin (Bos taurus, UniProt P00760); conditions: 0.1 M peptide, 100 mM Tris buffer pH 8, trypsin 50:1 (w/v), 37 °C, 0-120 min, RP-UHPLC peak area, n = 3
trypsin, sequence (P00760 24-246): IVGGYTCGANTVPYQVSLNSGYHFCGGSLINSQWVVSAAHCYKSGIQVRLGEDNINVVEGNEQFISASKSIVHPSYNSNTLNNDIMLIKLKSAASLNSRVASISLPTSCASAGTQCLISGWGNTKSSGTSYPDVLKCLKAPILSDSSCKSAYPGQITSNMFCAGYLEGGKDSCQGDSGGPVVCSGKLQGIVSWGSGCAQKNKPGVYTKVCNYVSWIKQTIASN
Protocol: as §1, §2

[5] = molecular target: T1, Human neutrophil elastase (HNE) (Homo sapiens, UniProt P08246); assay: Human neutrophil elastase inhibition assay; assay type: biochemical; conditions: 1.75 U/mL HNE, 0.6 mM N-Methoxysuccinyl-Ala-Ala-Pro-Val p-nitroanilide, 100 mM Tris buffer pH 8.0, 37 °C, absorbance 405 nm for 1 h, normalized initial velocity, mean n = 3; read-out: IC50, enzymatic activity of human neutrophil elastase
T1 construct: purchased Sigma-Aldrich or ThermoFisher Scientific (general statement only)
T1 sequence (P08246 30-267): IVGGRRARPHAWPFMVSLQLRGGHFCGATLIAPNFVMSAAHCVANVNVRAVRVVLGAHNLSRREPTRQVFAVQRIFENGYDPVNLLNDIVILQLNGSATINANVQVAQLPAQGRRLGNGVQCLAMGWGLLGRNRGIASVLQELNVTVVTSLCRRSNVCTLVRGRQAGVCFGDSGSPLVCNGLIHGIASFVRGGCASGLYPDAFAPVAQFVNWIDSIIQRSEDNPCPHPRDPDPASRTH
Protocol: Human neutrophil elastase (HNE) activity was determined by measuring the release of p-nitroanilide at 405 nm at 37 °C using N-Methoxysuccinyl-Ala-Ala-Pro-Val p-nitroanilide as substrates. Purified roseltide rT1 was incubated with 1.75 U/mL HNE and 0.6 mM substrate in 100 mM Tris buffer (pH 8.0) at 37 °C; absorbance was measured continuously for 1 h. […] The results were presented as normalized initial velocity.

[6] = Human serum stability; assay type: in vitro ADME; conditions: 0.1 M peptide, 25% human serum in DMEM without phenol red, 37 °C, 0, 24 and 48 h, ethanol precipitation, RP-UHPLC peak area, n = 3
Protocol: 0.1 M of purified roseltide rT1 was prepared in 25% human serum in DMEM medium without phenol red. The test samples were incubated at 37 °C. DALK was used as a positive control. Samples were collected at various time points (0, 24 and 48 h). The collected samples were subjected to protein precipitation with 100% ethanol and centrifugation at 180,000 g for 5 min at 4 °C. The supernatant was collected for analysis.

[7] = system: PAR2-cAMP-CHO cells; assay: Glosensor cAMP assay, neutrophil elastase-stimulated cAMP accumulation; assay type: cell-based, Chinese Hamster; conditions: co-incubation of HNE with peptide; CHO-K1 co-expressing PAR2 and Glosensor cAMP biosensor; luminescence 20 min, area under the curve; n = 3
Protocol: Huh7 (human liver carcinoma cells), A549 (human lung adenocarcinoma epithelial cells) cells, and Chinese Hamster Ovary-K1 cells (CHO-K1) were cultured in Dulbecco’s Modified Eagle’s Medium (DMEM)/Ham’s F12 containing 15 mM HEPES and L-glutamine and supplemented with 10% fetal bovine serum, 100 U/mL of penicillin, and streptomycin. The cells were grown in a 5% CO2 humidified incubator at 37 °C. CHO-K1 cells were transfected with pGlosensor-20F plasmid by electroporation and selected using 500 μg/mL hygromycin. CHO-K1 cells stably expressing the pGlosensor-20F construct (cAMP-CHO) were then transfected with pCMV6-XL5 encoding PAR2 receptor (NM 005242.3) and selected using 500 μg/mL G418. Stable cell lines co-expressing both pGlosensor-20F and PAR2 receptor constructs (PAR2-cAMP-CHO) were maintained with 500 μg/mL hygromycin and 500 μg/mL G418.
Glosensor cAMP assays were performed according to the manufacturer’s instructions. […] Luminescent intensity was measured using a microplate reader (Tecan Infinite 200 Pro, Switzerland); the plate was pre-read for 30 s to establish basal luminescent level. Following treatment, luminescent levels were continuously monitored for 20 min. The results are presented as fold change relative to basal luminescent levels and were quantified using the area under the curve.

pepsin, sequence (P00791 60-385): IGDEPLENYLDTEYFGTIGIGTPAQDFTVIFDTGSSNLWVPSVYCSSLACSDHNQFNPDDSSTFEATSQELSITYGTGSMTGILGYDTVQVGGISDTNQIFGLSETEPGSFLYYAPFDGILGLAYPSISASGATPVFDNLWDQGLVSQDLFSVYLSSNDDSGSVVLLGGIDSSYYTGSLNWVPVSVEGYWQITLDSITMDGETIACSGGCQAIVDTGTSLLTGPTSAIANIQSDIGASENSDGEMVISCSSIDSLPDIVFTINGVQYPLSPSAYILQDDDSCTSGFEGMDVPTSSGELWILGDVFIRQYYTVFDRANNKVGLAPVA

roseltide rT1 (peptide)
inhibition of the enzymatic activity of human neutrophil elastase (release of p-nitroanilide from N-methoxysuccinyl-Ala-Ala-Pro-Val p-nitroanilide, 405 nm, 37 °C, 100 mM Tris pH 8.0), IC50 [1]: 0.47 μM

CIPRGGICLVALSGCCNSPGCIFGICA (also: bicyclic or more (positions not given here)) [roseltide rT1, 27-residue cystine-knot peptide purified from Hibiscus sabdariffa calyces; disulfides Cys1-Cys16, Cys8-Cys21, Cys15-Cys26]
acid stability (resistance against degradation) [2]: resistant | pepsin stability (resistance against degradation) [3]: resistant | trypsin stability (resistance against degradation) [4]: resistant | IC50 [5]: 470 nM | human serum stability (resistance against degradation) [6]: resistant | effect on human neutrophil elastase-stimulated cAMP accumulation [7]: significantly suppressed
